# Patent publication US20260256792A1, “TREATMENT OF CHRONIC SPONTANEOUS URTICARIA BY ADMINISTERING (R)-2-[3-[4-AMINO-3-(2-FLUORO-4-PHENOXY-PHENYL)PYRAZOLO[3,4-D]PYRIMIDIN-1-YL]PIPERIDINE-1-CARBONYL]-4-METHYL-4-[4-(OXETAN-3-YL)PIPERAZIN-1-YL]PENT-2-ENENITRILE” (priority 2023, published 2026)
# Test system: moderate-to-severe chronic spontaneous urticaria (CSU)
# Experiment: Phase 2 CSU study: itch severity score over 7 days (ISS7)
# Format: in vivo, human
# Conditions: for ISS7 Median / ISS7 Mean (SD): End of Study
# Source text: The study comprises a 12 week, randomized, double-blind, placebo-controlled, multi-center, dose-ranging efficacy and safety phase, followed by a 40 week open label extension (OLE) phase (see FIG. 1). The study consists of three phases and an optional OLE phase. […] Clinically, CSU is characterized by the spontaneous and recurrent appearance of pruritic hives. The proposed primary endpoints were the UAS7 at Week 12 in EU and EU reference countries and the ISS7 in the US. Regardless of where a participant was from, all assessments were the same. The UAS7 score is a composite score containing both the HSS7 and the ISS7. This allowed a global assessment of the two key components of urticaria: hives and itch. […] The UAS is a validated PRO measure. […] The daily UAS scores range from 0 to 6 point/day. […] Patients were to complete the UAS using the e-diary. […] The following secondary endpoints were to be analyzed using the same approach as for the primary endpoint: • Change from baseline in UAS7 at Week 4 • Change from baseline in UAS7 at Week 12 (for US and US reference countries) • Change from baseline in ISS7 at Week 12 (except US and US reference countries) • Change from baseline in HSS7 at Week 12
# [1] = 400 mg TID, Prior Omalizumab Use
# [2] = ITT Population, 400 mg BID, Week 2
# [3] = ITT Population, 400 mg QPM, Week 3
# [4] = ITT Population, 400 mg QPM, Week 5
# [5] = ITT Population, 400 mg TID, Week 1
# [6] = ITT Population, 400 mg TID, Week 12
# [7] = ITT population, 400 mg BID, Week 1
# [8] = ITT population, 400 mg BID, Week 3
# [9] = ITT population, 400 mg BID, Week 4
# [10] = ITT population, 400 mg BID, Week 5
# [11] = ITT population, 400 mg BID, Week 6
# [12] = ITT population, 400 mg BID, Week 7
# [13] = ITT population, 400 mg BID, Week 8
# [14] = ITT population, 400 mg BID, Week 9
# [15] = ITT population, 400 mg BID, Week 10
# [16] = ITT population, 400 mg BID, Week 11
# [17] = ITT population, 400 mg BID, Week 12
# [18] = ITT population, 400 mg QPM, Week 1
# [19] = ITT population, 400 mg QPM, Week 2
compound,measurement,setting,value
"CC(C)(C=C(C#N)C(=O)N1CCC[C@@H](n2nc(-c3ccc(Oc4ccccc4)cc3F)c3c(N)ncnc32)C1)N1CCN(C2COC2)CC1 [rilzabrutinib, (R)-2-[3-[4-amino-3-(2-fluoro-4-phenoxy-phenyl)pyrazolo[3,4-d]pyrimidin-1-yl]piperidine-1-carbonyl]-4-methyl-4-[4-(oxetan-3-yl)piperazin-1-yl]pent-2-enenitrile]",ISS7 Median,"400 mg QPM, Omalizumab-Naïve",2.00
same,ISS7 Mean (SD),"400 mg TID, Omalizumab-Naïve",11.40 (6.11)
same,ISS7 Mean (SD),[1],9.50 (6.36)
same,ISS7 Median,[1],9.50
same,Imputed non-responder n (%) (ISS7 reduction of 5 points or more),[2],2 (4.9) n (%)
same,Non-responder n (%) (ISS7 reduction of 5 points or more),[2],19 (46.3) n (%)
same,OR for rilzabrutinib vs. placebo (ISS7 reduction of 5 points or more),[2],2.693
same,RRD (%) for rilzabrutinib vs. placebo (ISS7 reduction of 5 points or more),[2],23.6%
same,Responder n (%) (ISS7 reduction of 5 points or more),[2],22 (53.7) n (%)
same,Imputed non-responder n (%) (ISS7 reduction of 5 points or more),[3],0 n (%)
same,Non-responder n (%) (ISS7 reduction of 5 points or more),[3],20 (52.6) n (%)
same,OR for rilzabrutinib vs. placebo (ISS7 reduction of 5 points or more),[3],1.881
same,RRD (%) for rilzabrutinib vs. placebo (ISS7 reduction of 5 points or more),[3],15.9%
same,Responder n (%) (ISS7 reduction of 5 points or more),[3],18 (47.4) n (%)
same,Imputed non-responder n (%) (ISS7 reduction of 5 points or more),[4],2 (5.3) n (%)
same,Non-responder n (%) (ISS7 reduction of 5 points or more),[4],21 (55.3) n (%)
same,OR for rilzabrutinib vs. placebo (ISS7 reduction of 5 points or more),[4],0.781
same,RRD (%) for rilzabrutinib vs. placebo (ISS7 reduction of 5 points or more),[4],6.2%
same,Responder n (%) (ISS7 reduction of 5 points or more),[4],17 (44.7) n (%)
same,Imputed non-responder n (%) (ISS7 reduction of 5 points or more),[5],0 n (%)
same,Non-responder n (%) (ISS7 reduction of 5 points or more),[5],14 (34.1) n (%)
same,OR for rilzabrutinib vs. placebo (ISS7 reduction of 5 points or more),[5],6.428
same,RRD (%) for rilzabrutinib vs. placebo (ISS7 reduction of 5 points or more),[5],42.3%
same,Responder n (%) (ISS7 reduction of 5 points or more),[5],27 (65.9) n (%)
same,Imputed non-responder n (%) (ISS7 reduction of 5 points or more),[6],11 (26.8) n (%)
same,Non-responder n (%) (ISS7 reduction of 5 points or more),[6],18 (43.9) n (%)
same,OR for rilzabrutinib vs. placebo (ISS7 reduction of 5 points or more),[6],1.371
same,RRD (%) for rilzabrutinib vs. placebo (ISS7 reduction of 5 points or more),[6],7.9%
same,Responder n (%) (ISS7 reduction of 5 points or more),[6],23 (56.1) n (%)
same,Imputed non-responder n (%) (ISS7 reduction of 5 points or more),[7],1 (2.4) n (%)
same,Non-responder n (%) (ISS7 reduction of 5 points or more),[7],21 (51.2) n (%)
same,OR for rilzabrutinib vs. placebo (ISS7 reduction of 5 points or more),[7],3.262
same,RRD (%) for rilzabrutinib vs. placebo (ISS7 reduction of 5 points or more),[7],25.5%
same,Responder n (%) (ISS7 reduction of 5 points or more),[7],20 (48.8) n (%)
same,Imputed non-responder n (%) (ISS7 reduction of 5 points or more),[8],1 (2.4) n (%)
same,Non-responder n (%) (ISS7 reduction of 5 points or more),[8],19 (46.3) n (%)
same,OR for rilzabrutinib vs. placebo (ISS7 reduction of 5 points or more),[8],2.451
same,RRD (%) for rilzabrutinib vs. placebo (ISS7 reduction of 5 points or more),[8],21.5%
same,Responder n (%) (ISS7 reduction of 5 points or more),[8],22 (53.7) n (%)
same,Imputed non-responder n (%) (ISS7 reduction of 5 points or more),[9],4 (9.8) n (%)
same,Non-responder n (%) (ISS7 reduction of 5 points or more),[9],19 (46.3) n (%)
same,RRD (%) for rilzabrutinib vs. placebo (ISS7 reduction of 5 points or more),[9],5.6%
same,Responder n (%) (ISS7 reduction of 5 points or more),[9],22 (53.7) n (%)
same,Imputed non-responder n (%) (ISS7 reduction of 5 points or more),[10],5 (12.2) n (%)
same,Non-responder n (%) (ISS7 reduction of 5 points or more),[10],18 (43.9) n (%)
same,RRD (%) for rilzabrutinib vs. placebo (ISS7 reduction of 5 points or more),[10],2.7%
same,Responder n (%) (ISS7 reduction of 5 points or more),[10],23 (56.1) n (%)
same,Imputed non-responder n (%) (ISS7 reduction of 5 points or more),[11],4 (9.8) n (%)
same,Non-responder n (%) (ISS7 reduction of 5 points or more),[11],20 (48.8) n (%)
same,RRD (%) for rilzabrutinib vs. placebo (ISS7 reduction of 5 points or more),[11],2.7%
same,Responder n (%) (ISS7 reduction of 5 points or more),[11],21 (51.2) n (%)
same,Imputed non-responder n (%) (ISS7 reduction of 5 points or more),[12],4 (9.8) n (%)
same,Non-responder n (%) (ISS7 reduction of 5 points or more),[12],19 (46.3) n (%)
same,OR for rilzabrutinib vs. placebo (ISS7 reduction of 5 points or more),[12],1.258
same,RRD (%) for rilzabrutinib vs. placebo (ISS7 reduction of 5 points or more),[12],5.5%
same,Responder n (%) (ISS7 reduction of 5 points or more),[12],22 (53.7) n (%)
same,Imputed non-responder n (%) (ISS7 reduction of 5 points or more),[13],5 (12.2) n (%)
same,Non-responder n (%) (ISS7 reduction of 5 points or more),[13],16 (39.0) n (%)
same,OR for rilzabrutinib vs. placebo (ISS7 reduction of 5 points or more),[13],1.388
same,RRD (%) for rilzabrutinib vs. placebo (ISS7 reduction of 5 points or more),[13],8.3%
same,Responder n (%) (ISS7 reduction of 5 points or more),[13],25 (61.0) n (%)
same,Imputed non-responder n (%) (ISS7 reduction of 5 points or more),[14],9 (22.0) n (%)
same,Non-responder n (%) (ISS7 reduction of 5 points or more),[14],19 (46.3) n (%)
same,OR for rilzabrutinib vs. placebo (ISS7 reduction of 5 points or more),[14],1.233
same,RRD (%) for rilzabrutinib vs. placebo (ISS7 reduction of 5 points or more),[14],5.6%
same,Responder n (%) (ISS7 reduction of 5 points or more),[14],22 (53.7) n (%)
same,Imputed non-responder n (%) (ISS7 reduction of 5 points or more),[15],10 (24.4) n (%)
same,Non-responder n (%) (ISS7 reduction of 5 points or more),[15],22 (53.7) n (%)
same,OR for rilzabrutinib vs. placebo (ISS7 reduction of 5 points or more),[15],0.786
same,RRD (%) for rilzabrutinib vs. placebo (ISS7 reduction of 5 points or more),[15],−6.2%
same,Responder n (%) (ISS7 reduction of 5 points or more),[15],19 (46.3) n (%)
same,Imputed non-responder n (%) (ISS7 reduction of 5 points or more),[16],9 (22.0) n (%)
same,Non-responder n (%) (ISS7 reduction of 5 points or more),[16],19 (46.3) n (%)
same,OR for rilzabrutinib vs. placebo (ISS7 reduction of 5 points or more),[16],0.837
same,RRD (%) for rilzabrutinib vs. placebo (ISS7 reduction of 5 points or more),[16],−4.5%
same,Responder n (%) (ISS7 reduction of 5 points or more),[16],22 (53.7) n (%)
same,Imputed non-responder n (%) (ISS7 reduction of 5 points or more),[17],14 (34.1) n (%)
same,Non-responder n (%) (ISS7 reduction of 5 points or more),[17],21 (51.2) n (%)
same,OR for rilzabrutinib vs. placebo (ISS7 reduction of 5 points or more),[17],1.063
same,RRD (%) for rilzabrutinib vs. placebo (ISS7 reduction of 5 points or more),[17],1.6%
same,Responder n (%) (ISS7 reduction of 5 points or more),[17],20 (48.8) n (%)
same,Imputed non-responder n (%) (ISS7 reduction of 5 points or more),[18],0 n (%)
same,Non-responder n (%) (ISS7 reduction of 5 points or more),[18],25 (65.8) n (%)
same,OR for rilzabrutinib vs. placebo (ISS7 reduction of 5 points or more),[18],1.855
same,RRD (%) for rilzabrutinib vs. placebo (ISS7 reduction of 5 points or more),[18],12.7%
same,Responder n (%) (ISS7 reduction of 5 points or more),[18],13 (34.2) n (%)
same,Imputed non-responder n (%) (ISS7 reduction of 5 points or more),[19],0 n (%)
same,Non-responder n (%) (ISS7 reduction of 5 points or more),[19],23 (60.5) n (%)
same,OR for rilzabrutinib vs. placebo (ISS7 reduction of 5 points or more),[19],1.662
same,Responder n (%) (ISS7 reduction of 5 points or more),[19],15 (39.5) n (%)
same,Imputed non-responder n (%) (ISS7 reduction of 5 points or more),"ITT population, 400 mg QPM, Week 4",1 (2.6) n (%)
